The text below walks through data of patent US20230167073A1 (Teijin Pharma Limited, priority 2020, published 2023).

Molecules are shown by their SMILES.

For this experiment, the target named is T1, Human TRPC6 (Homo sapiens, UniProt Q9Y210).
T1 construct: expressed in transfected cells
T1 sequence (Q9Y210 1-931): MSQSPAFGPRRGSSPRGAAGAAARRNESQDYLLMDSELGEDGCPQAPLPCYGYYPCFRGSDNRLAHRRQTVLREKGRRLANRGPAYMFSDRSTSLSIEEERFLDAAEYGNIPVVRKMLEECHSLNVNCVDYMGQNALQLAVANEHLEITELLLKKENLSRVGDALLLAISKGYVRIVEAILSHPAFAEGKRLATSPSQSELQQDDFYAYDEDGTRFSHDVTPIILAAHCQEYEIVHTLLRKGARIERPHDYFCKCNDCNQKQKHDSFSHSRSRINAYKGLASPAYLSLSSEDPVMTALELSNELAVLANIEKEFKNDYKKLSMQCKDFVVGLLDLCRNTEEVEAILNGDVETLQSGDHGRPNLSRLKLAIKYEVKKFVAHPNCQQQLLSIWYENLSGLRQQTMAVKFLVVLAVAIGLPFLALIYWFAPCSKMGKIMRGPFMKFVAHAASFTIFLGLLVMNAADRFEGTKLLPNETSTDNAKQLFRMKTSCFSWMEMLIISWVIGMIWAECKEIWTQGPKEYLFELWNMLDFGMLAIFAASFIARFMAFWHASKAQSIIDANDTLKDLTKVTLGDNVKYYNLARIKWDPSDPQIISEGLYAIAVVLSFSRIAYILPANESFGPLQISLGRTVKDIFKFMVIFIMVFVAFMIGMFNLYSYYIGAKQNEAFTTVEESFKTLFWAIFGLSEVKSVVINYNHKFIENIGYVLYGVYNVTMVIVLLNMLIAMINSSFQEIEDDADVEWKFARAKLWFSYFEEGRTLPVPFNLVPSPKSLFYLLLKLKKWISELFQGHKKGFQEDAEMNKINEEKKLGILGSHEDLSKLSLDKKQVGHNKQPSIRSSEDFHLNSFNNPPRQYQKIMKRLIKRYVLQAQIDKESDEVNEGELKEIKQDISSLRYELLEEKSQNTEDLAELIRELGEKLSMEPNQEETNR
Put plainly: Evaluation of TRPC6 channel inhibitory activity (1), FLIPR Calcium 5 Assay Kit, OAG stimulation (Compound Nos. 1-1293). Type of experiment: cell-based. As to conditions: Human TRPC6 stably-expressing cells, OAG 30 μM, FLIPR Calcium 5 Assay Kit; read-out: Inhibitory activity (pIC50 class) (converted). Put shortly:
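Cells stably expressing human TRPC6, plated 24 h before, were loaded 30 min with Calcium 5 dye plus probenecid in HEPES-HBSS. Compound was added 20 min before OAG (30 μM final) and fluorescence tracked on FLIPR. Inhibition normalised to no-compound and no-compound/no-OAG wells; pIC50 from four-parameter fit, reported as +/++/+++ categories.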

Turning to `N#Cc1ccc(-c2ccc(CCN)cn2)c(Cn2cnc(-c3ccccc3Cl)c2)c1` [compound 1144, 4-[5-(2-aminoethyl)pyridin-2-yl]-3-[[4-(2-chlorophenyl)imidazol-1-yl]methyl]benzonitrile], the IC50 was below 10 nM.

With `Cc1ccccc1-c1cn(Cc2cc(C#N)ccc2-c2ccc(CCN)cn2)cn1` [compound 1145, 4-[5-(2-aminoethyl)pyridin-2-yl]-3-[[4-(2-methylphenyl)imidazol-1-yl]methyl]benzonitrile], the IC50 is below 10 nM.

On to `Cc1ccc(-c2cn(Cc3cc(C#N)ccc3-c3ccc(CCN)cn3)cn2)cc1` [compound 1146, 4-[5-(2-aminoethyl)pyridin-2-yl]-3-[[4-(4-methylphenyl)imidazol-1-yl]methyl]benzonitrile], for which the IC50 is 10 to 1000 nM.

For `N#Cc1ccc(-c2ccc(CCN)cn2)c(Cn2cnc(-c3ccc(F)cc3)c2)c1` [compound 1147, 4-[5-(2-aminoethyl)pyridin-2-yl]-3-[[4-(4-fluorophenyl)imidazol-1-yl]methyl]benzonitrile], the IC50 was below 10 nM.

On to `Cc1cccc(-c2cn(Cc3cc(C#N)ccc3-c3ccc(CCN)cn3)cn2)c1` [compound 1148, 4-[5-(2-aminoethyl)pyridin-2-yl]-3-[[4-(3-methylphenyl)imidazol-1-yl]methyl]benzonitrile], for which the IC50 was below 10 nM.

As to `N#Cc1ccc(-c2ccc(CCN)cn2)c(Cn2cnc(-c3cccc(F)c3)c2)c1` [compound 1149, 4-[5-(2-aminoethyl)pyridin-2-yl]-3-[[4-(3-fluorophenyl)imidazol-1-yl]methyl]benzonitrile], the IC50 is below 10 nM.

As to `Cc1nc(-c2ccccc2)cn1Cc1cc(C#N)ccc1-c1ccc(CCN)cn1` [compound 1150, 4-[5-(2-aminoethyl)pyridin-2-yl]-3-[(2-methyl-4-phenylimidazol-1-yl)methyl]benzonitrile], the IC50 was below 10 nM.

For the compound `Cc1ccccc1-c1cn(Cc2cc(C#N)ccc2-c2ccc(CCN)cn2)c(C)n1` [compound 1151, 4-[5-(2-aminoethyl)pyridin-2-yl]-3-[[2-methyl-4-(2-methylphenyl)imidazol-1-yl]methyl]benzonitrile], the IC50 is below 10 nM.

Take `Cc1nc(-c2ccccc2F)cn1Cc1cc(C#N)ccc1-c1ccc(CCN)cn1` [compound 1152, 4-[5-(2-aminoethyl)pyridin-2-yl]-3-[[4-(2-fluorophenyl)-2-methylimidazol-1-yl]methyl]benzonitrile]: the IC50 was below 10 nM.

`Cc1ccc(-c2cn(Cc3cc(C#N)ccc3-c3ccc(CCN)cn3)c(C)n2)cc1` [compound 1153, 4-[5-(2-aminoethyl)pyridin-2-yl]-3-[[2-methyl-4-(4-methylphenyl)imidazol-1-yl]methyl]benzonitrile]: the IC50 was below 10 nM.

Regarding `Cc1nc(-c2ccc(F)cc2)cn1Cc1cc(C#N)ccc1-c1ccc(CCN)cn1` [compound 1154, 4-[5-(2-aminoethyl)pyridin-2-yl]-3-[[4-(4-fluorophenyl)-2-methylimidazol-1-yl]methyl]benzonitrile], the IC50 was below 10 nM.

With `Cc1cccc(-c2cn(Cc3cc(C#N)ccc3-c3ccc(CCN)cn3)c(C)n2)c1` [compound 1155, 4-[5-(2-aminoethyl)pyridin-2-yl]-3-[[2-methyl-4-(3-methylphenyl)imidazol-1-yl]methyl]benzonitrile], the IC50 is below 10 nM.

Turning to `Cc1nc(-c2cccc(F)c2)cn1Cc1cc(C#N)ccc1-c1ccc(CCN)cn1` [compound 1156, 4-[5-(2-aminoethyl)pyridin-2-yl]-3-[[4-(3-fluorophenyl)-2-methylimidazol-1-yl]methyl]benzonitrile], the IC50 is below 10 nM.

Regarding `Cc1nc(-c2ccccn2)cn1Cc1cc(C#N)ccc1-c1ccc(CCN)cn1` [compound 1157, 4-[5-(2-aminoethyl)pyridin-2-yl]-3-[(2-methyl-4-pyridin-2-ylimidazol-1-yl)methyl]benzonitrile], the IC50 is 10 to 1000 nM.

As for `Cc1cc(-c2ccccc2)nn1Cc1cc(C#N)ccc1-c1ccc(CCN)cn1` [compound 1158, 4-[5-(2-aminoethyl)pyridin-2-yl]-3-[(5-methyl-3-phenylpyrazol-1-yl)methyl]benzonitrile], the IC50 was above 1000 nM.

`Cc1cc(C(C)(C)C)nn1Cc1cc(C#N)ccc1-c1ccc(CCN)cn1` [compound 1159, 4-[5-(2-aminoethyl)pyridin-2-yl]-3-[(3-tert-butyl-5-methylpyrazol-1-yl)methyl]benzonitrile]: the IC50 was 10 to 1000 nM.

Turning to `N#Cc1ccc(-c2ccc(CCN)cn2)c(Cn2cnc(-c3ccccn3)c2)c1` [compound 1160, 4-[5-(2-aminoethyl)pyridin-2-yl]-3-[(4-pyridin-2-ylimidazol-1-yl)methyl]benzonitrile], the IC50 is above 1000 nM.

For the compound `Cc1nc(-c2cccc(F)c2)cn1Cc1cc(C#N)ccc1-c1ccc([C@H](O)CN)cn1` [compound 1161, 4-[5-[(1S)-2-amino-1-hydroxyethyl]pyridin-2-yl]-3-[[4-(3-fluorophenyl)-2-methylimidazol-1-yl]methyl]benzonitrile], the IC50 was 10 to 1000 nM.

Consider `Cc1nc(-c2cccc(F)c2)cn1Cc1cc(C#N)ccc1-c1ncc([C@H](O)CN)cn1` [compound 1162, 4-[5-[(1S)-2-amino-1-hydroxyethyl]pyrimidin-2-yl]-3-[[4-(3-fluorophenyl)-2-methylimidazol-1-yl]methyl]benzonitrile], for which the IC50 was 10 to 1000 nM.

For `Cc1nc(C2CCOCC2)cn1Cc1cc(C#N)ccc1-c1ccc(CN)cn1` [compound 1163, 4-[5-(aminomethyl)pyridin-2-yl]-3-[[2-methyl-4-(oxan-4-yl)imidazol-1-yl]methyl]benzonitrile], the IC50 is 10 to 1000 nM.

On to `Cc1nc(C2CCOCC2)cn1Cc1cc(C#N)ccc1-c1ncc(CN)cn1` [compound 1164, 4-[5-(aminomethyl)pyrimidin-2-yl]-3-[[2-methyl-4-(oxan-4-yl)imidazol-1-yl]methyl]benzonitrile], for which the IC50 was 10 to 1000 nM.

On to `Cc1nc(C2CCOCC2)cn1Cc1cc(C#N)ccc1-c1ccc([C@H](O)CN)cn1` [compound 1165], for which the IC50 is above 1000 nM.

As for `Cc1nc(C2CCOCC2)cn1Cc1cc(C#N)ccc1-c1ncc([C@H](O)CN)cn1` [compound 1166], the IC50 is above 1000 nM.

With `N#Cc1ccc(-c2ncc(CCN)cn2)c(Cn2cc(-c3ccccc3)nn2)c1` [compound 1167, 4-[5-(2-aminoethyl)pyrimidin-2-yl]-3-[(4-phenyltriazol-1-yl)methyl]benzonitrile], the IC50 was below 10 nM.

With `N#Cc1ccc(-c2ncc(CN)cn2)c(Cn2cc(-c3ccccc3)nn2)c1` [compound 1168, 4-[5-(aminomethyl)pyrimidin-2-yl]-3-[(4-phenyltriazol-1-yl)methyl]benzonitrile], the IC50 was 10 to 1000 nM.

For the compound `N#Cc1ccc(-c2ncc(CCN)cn2)c(Cn2ncc(-c3ccccc3)n2)c1` [compound 1169, 4-[5-(2-aminoethyl)pyrimidin-2-yl]-3-[(4-phenyltriazol-2-yl)methyl]benzonitrile], the IC50 is above 1000 nM.

On to `N#Cc1ccc(-c2ncc(CN)cn2)c(Cn2ncc(-c3ccccc3)n2)c1` [compound 1170, 4-[5-(aminomethyl)pyrimidin-2-yl]-3-[(4-phenyltriazol-2-yl)methyl]benzonitrile], for which the IC50 is above 1000 nM.

Take `Cc1nc(C(C)C)cn1Cc1cc(C#N)ccc1-c1ncc(CCN)cn1` [compound 1171, 4-[5-(2-aminoethyl)pyrimidin-2-yl]-3-[(2-methyl-4-propan-2-ylimidazol-1-yl)methyl]benzonitrile]: the IC50 is 10 to 1000 nM.

For the compound `Cc1nc(C(C)C)cn1Cc1cc(C#N)ccc1-c1ncc(CN)cn1` [compound 1172, 4-[5-(aminomethyl)pyrimidin-2-yl]-3-[(2-methyl-4-propan-2-ylimidazol-1-yl)methyl]benzonitrile], the IC50 was 10 to 1000 nM.

Regarding `Cc1nc(C(F)(F)F)cn1Cc1cc(C#N)ccc1-c1ncc(CCN)cn1` [compound 1173, 4-[5-(2-aminoethyl)pyrimidin-2-yl]-3-[[2-methyl-4-(trifluoromethyl)imidazol-1-yl]methyl]benzonitrile], the IC50 was below 10 nM.

Turning to `Cc1nc(C(F)(F)F)cn1Cc1cc(C#N)ccc1-c1ncc(CN)cn1` [compound 1174, 4-[5-(aminomethyl)pyrimidin-2-yl]-3-[[2-methyl-4-(trifluoromethyl)imidazol-1-yl]methyl]benzonitrile], the IC50 was 10 to 1000 nM.
